According to patent US4876346A, “Quinoline compounds” (American Home Products Corporation, priority 1986, dated 1989):
Where a name gives a salt, the structure may show the parent alone. Read-outs that look alike come from different tables or passages of the source.

Legend:
[1] = test system: LTD4 induced bronchoconstriction; assay: In vivo inhibition of bronchospasm induced in guinea pigs by exogenously administered leukotrienes (Example 11); parameters: species or system guinea pig (male Hartley); details: 10 minutes before induction of bronchospasm (LTD4), guinea pig; for inhibition in vivo at 25 mg/kg / inhibition in vivo at 50 mg/kg: Cavia porcellus, read-out: % Inhibition of Max AUC
[2] = test system: ovalbumin induced bronchospasm; assay: In vivo inhibition of ovalbumin induced bronchospasm in sensitized guinea pigs mediated by endogenous mediators (Example 12); parameters: species or system guinea pig (male Hartley); details: Cavia porcellus, 10 minutes before ovalbumin challenge, guinea pig, read-out: % Inhibition of Max AUC
Procedure: The assay of this Example measures the in vivo ability of the compounds of the invention to inhibit the bronchospasm induced in guinea pigs by endogenous mediators of the bronchoconstriction.
(§1) The assay is carried out as follows:
Male Hartley strain guinea pigs weighing 250-350 g are sensitized to chicken ovalbumin (OA) (10 mg i.p.) on days 1 and 3 and used starting on day 26. The animals are anesthetized with pentobarbital sodium (50 mg/kg, i.p.), bilateral vagotomy is performed, and the jugular vein is cannulated for injection of drugs and the carotid artery for monitoring blood pressure. The trachea is cannulated for artificial ventilation by miniature Starling pump and for indirect measurement of respiratory volume changes as described, infra. Succinylcholine (2 mg/kg, i.v.) is administered to arrest spontaneous respiration. A cyclooxygenase inhibitor, indomethacin (10 mg/kg in tris buffer, i.v. at 9 min.) is administered to shunt arachidonic metabolism to lipoxygenase pathways. One minute later, chlorpheniramine (1.0 mg/kg in saline, i.v.) is given to attenuate the histaminic component of anaphylactic bronchoconstriction. Test drugs (dissolved in propylene glycol, polyethylene glycol or saline) are administered either intraduodenally or by aerosol at 2 or 10 minutes before antigen challenge. Anaphylactic bronchoconstriction is induced by administration by breaths of aerosolized OA (1%) or by intravenous administration of 0.1-0.3 mg/kg OA in saline. Control animals receive solvent (2 ml/kg i.d. or appropriate aerosol) in place of drug.
Respiratory volume changes are determined by a calibrated piston whose travel is recorded, via a linear transducer, on a Beckman Dynograph recorder. Maximal bronchoconstrictor volume is determined by clamping off the trachea at the end of the experiment. Overflow volumes at minutes 1, 3 and 5 are obtained from the recorded charts.
Area under the volume overflow curve (AUC) is estimated, using the overflow values at 1, 3 and 5 minutes, and expressed as a percentage of the maximal overflow AUC (equation 1): [formula] Drug effects are reported as percent inhibition of % max AUC values obtained from appropriate control animals (equation 2): [formula] Students t-test for unpaired data is used to determine statistical significance. Dose response curves are generated and ED50 doses are interpolated from the regression lines.
Results for compounds of the invention in this assay, using LTD4 for induction of bronchospasm, are given below: […]

[3] = test system: 5-HETE synthesis by rat glycogen elicited polymorphonuclear leukocytes; assay: Inhibition of synthesis of 5-HETE by rat glycogen elicited polymorphonuclear leukocytes (Example 10); type: cell-based, rat (female Wistar); details: Leukocyte, [14C]5-HETE synthesis, rat PMN; for IC50: read-out: 50% Inhibitory Concentration (IC50)
Procedure: as §1
Peritoneal PMN are obtained from female Wistar rats (150-250 g) that received an i.p. injection of 6% glycogen (10 ml). After 24 hours, rats are killed by CO2 asphyxiation and peritoneal cells are harvested by peritoneal lavage using Ca^++ and Mg^++ free Hanks' balanced salt solution (HBSS). The peritoneal exudate is centrifuged at 400 g for 10 minutes. After centrifugation, the lavaged fluid is removed and the cell pellet is […] in HBSS containing Ca^++ and Mg^++ and 10 mM L-cystein at a concentration of 2×10^7 cells/ml. To 1 ml portions of cell suspens, test drugs or vehicle are added and incubated at 37° C. for 10 minutes. Following this preincubation, the calcium ionophore (10 μM), A23187, is added together with 0.5 μCi [^14 C] arachidonic acid and further incubated for 10 minutes. The reaction is stopped by the addition of ice cold water (3 ml) and acidifying to pH 3.5. Lipoxygenase products are then extracted twice into diethyl ether. The pooled ether extracts are evaporated to dryness under nitrogen and the residue is redissolved in a small volume of methanol and spotted on aluminum backed pre-coated thin layer chromatographic plates. The samples are then co-chromatographed with authentic reference 5-HETE in the solvent system--hexane:ether:acetic acid (50:50:3). After chromatography, the areas associated with 5-HETE standard are identified by autoradiography, cut out and quantitated by liquid scintillation.
Results are expressed as % inhibition of [^14 C]5-HETE synthesis. [formula]

Compound	inhibition in vivo at 25 mg/kg ([1]; 25 mg/kg intraduodenal) [%]	inhibition in vivo at 50 mg/kg ([1]; 50 mg/kg intraduodenal) [%]	inhibition at 50 µM [3] [%]	further results
CCOC(=O)NCC(O)c1cccc(OCc2ccc3ccccc3n2)c1 (stereo not shown) [Example 2L, 1-[3-[(2-Quinolinyl)methoxy]phenyl]-2-(N-ethylcarboxylate)amino ethanol]	35.6	–	–	–
CCNC(=O)N(C)C[C@H](O)c1cccc(OCc2ccc3ccccc3n2)c1 [Example 3]	94.9	81.7	–	inhibition in vivo at 50 mg/kg ([2]; po, 50 mg/kg peroral): 46.4%
N-[2-Hydroxy-2-[3-(2-quinolinyl)phenyl]ethyl]benzamide [Example 7A]	–	–	–	% Inhibition of Max AUC ([1]; 25 mg/kg intraduodenal): 18.1%
C#CCN(C)C[C@H](O)c1cccc(OCc2ccc3ccccc3n2)c1 [Example 8, α-[[Methyl-(2-propynyl)amino]methyl]-3-(2-quinolinylmethoxy)benzene methanol]	41.2	–	–	–
O=C(NCC(O)c1cccc(OCc2ccc3ccccc3n2)c1)c1ccccn1 (stereo not shown) [Example 6, N-[2-Hydroxy-2-[3-(2-quinolinylmethoxy)phenyl]ethyl]-2-pyridine carboxamide]	19.8	–	–	–
CCOC(=O)N(C)C[C@H](O)c1cccc(OCc2ccc3ccccc3n2)c1 [Example 2K, (1R)-1-[3-[(2-Quinolinyl)methoxy]phenyl]-2-(N-methyl-N-ethylcarboxylate)amino ethanol]	–	70.6	–	–
CCN(CC)C(=O)N(C)C[C@@H](O)c1cccc(OCc2ccc3ccccc3n2)c1 [Example 2J, (1S)-1-[3-[(2-Quinolinyl)methoxy]phenyl]-2-(N-methyl-N-diethylcarbamoyl)amino ethanol]	–	–	–	inhibition in vivo at 25 mg/kg ([2]; 25 mg/kg intraduodenal): 81.2%
CCN(CC)C(=O)N(C)C[C@H](O)c1cccc(OCc2ccc3ccccc3n2)c1 [Example 2B, (1R)-1-[3-[(2-Quinolinyl)methoxy]phenyl]-2-(N-methyl-N-diethylcarbamoyl)amino ethanol]	–	–	–	inhibition in vivo at 50 mg/kg ([2]; 50 mg/kg intraduodenal): 75.8%
CN(C[C@H](O)c1cccc(OCc2ccc3ccccc3n2)c1)C(=O)c1ccncc1 [Example 2D, (1R)-1-[3-[(2-Quinolinyl)methoxy]phenyl]-2-[N-methyl-N-(4-pyridinoyl)]amino ethanol]	–	43.9	< 50	–
COC(=O)[C@@H]1CCCN1C(=O)N(C)C[C@H](O)c1cccc(OCc2ccc3ccccc3n2)c1 [Example 2I, (S)-1-[[[(R)-2-Hydroxy-2-[3-(2-quinolinylmethoxy)phenyl]ethyl]methylamino]carbonyl]-2-pyrrolidine carboxylic acid, methyl ester, hydrochloride]	–	71.2	–	inhibition in vivo at 50 mg/kg ([2]; 50 mg/kg intraduodenal): 22.5%
CN(C)C(=O)N(C)C[C@H](O)c1cccc(OCc2ccc3ccccc3n2)c1 [Example 2F, (1R)-1-[3-[(2-Quinolinyl)methoxy]phenyl]-2-(N-methyl-N-dimethylcarbamoyl)amino ethanol]	–	92.6	> 50	–
O=C(NCC(O)c1cccc(OCc2ccc3ccccc3n2)c1)c1cccs1 (stereo not shown) [Example 7B, N-[2-Hydroxy-2-[3-(2-quinolinylmethoxy)phenyl]ethyl]-2-thiophene carboxamide]	81.9	–	–	–
CN(C[C@H](O)c1cccc(OCc2ccc3ccccc3n2)c1)C(=O)N(c1ccccc1)c1ccccc1 [Example 2E, (1R)-1-[3-[(2-Quinolinyl)methoxy]phenyl]-2-(N-methyl-N-diphenylcarbamoyl)amino ethanol, hydrochloride]	–	21	> 50	–
O=S(=O)(NCC(O)c1cccc(OCc2ccc3ccccc3n2)c1)C(F)(F)F (stereo not shown) [Example 9, 1,1,1-Trifluoro-N-[2-hydroxy-2-[3-(2-quinolinylmethoxy)phenyl]ethyl]methanesulfonamide]	84.8	–	–	inhibition in vivo at 25 mg/kg ([1]; po, 25 mg/kg peroral): 75.6%
CCN(CC)C(=O)N(C)C[C@H](O)c1cccc(OCc2nc3ccccc3n2C)c1 [Example 2A, (1R)-1-[3-[(1-Methyl-2-benzimidazoyl)methoxy]phenyl]-2-(N-methyl-N-diethylcarbamoyl)amino ethanol]	–	77.2	> 50	inhibition in vivo at 50 mg/kg ([2]; 50 mg/kg intraduodenal): 83.4%; IC50 [3]: 16.4 µM
CN(C)S(=O)(=O)N(C)C[C@H](O)c1cccc(OCc2ccc3ccccc3n2)c1 [Example 2H, (1R)-1-[3-[(2-Quinolinyl)methoxy]phenyl]-2-(N-methyl-N-dimethylsulfamoyl)amino ethanol]	–	56	–	inhibition in vivo at 50 mg/kg ([2]; 50 mg/kg intraduodenal): 2.5%; inhibition in vivo at 50 mg/kg ([1]; po, 50 mg/kg peroral): 25.4%
CCC(=O)N(C)C[C@H](O)c1cccc(OCc2nc3ccccc3n2C)c1 [Example 2C, (1R)-1-[3-[(1-Methyl-2-benzimidazoyl)methoxy]phenyl]-2-(N-methyl-N-propanoyl)amino ethanol]	–	63.9	< 50	inhibition in vivo at 50 mg/kg ([2]; 50 mg/kg intraduodenal): 65.6%
CCN(CC)C(=O)N(CC)C[C@H](O)c1cccc(OCc2ccc3ccccc3n2)c1 [Example 2G, (1R)-1-[3-[(2-Quinolinyl)methoxy]phenyl]-2-(N-ethyl-N-diethylcarbamoyl)amino ethanol]	–	65.1	> 50	–
CCNC(=O)O[C@@H](CN(C)C(=O)NCC)c1cccc(OCc2ccc3ccccc3n2)c1 [Example 5, Ethylcarbamic acid (1R)-2-[[(ethylamino)carbonyl]methylamino]-1-[3-(2-quinolinylmethoxy)phenyl]ethyl ester, hydrochloride]	–	54.2	–	inhibition in vivo at 50 mg/kg ([2]; 50 mg/kg intraduodenal): 80.2%; inhibition in vivo at 50 mg/kg ([1]; po, 50 mg/kg peroral): 18.6%
CCN(CC)C(=O)N(C)C[C@H](O)c1cccc(OCc2nc3ccccc3s2)c1 [Example 1, (1R)-1-[3-[(2-Benzthiazoyl)-methoxy]phenyl]-2-(N-methyl-N-diethylcarbamoyl)amino ethanol]	–	59.2	> 50	IC50 [3]: 40.4 µM
CCOC(=O)CC(=O)NCC(O)c1cccc(OCc2ccc3ccccc3n2)c1 (racemic) [Example 7C, 3-[[2-Hydroxy-2-[3-(2-quinolinylmethoxy)phenyl]ethyl]amino]-3-oxopropanoicacid, ethyl ester]	24.9	–	–	–
